{"source": "patent US20250064990A1", "about": "“METHODS OF SCREENING FOR VMAT2 INHIBITORS” (Neurocrine Biosciences, Inc., priority 2021, published 2025)", "assay": "NBI-750142 concentration in cynomolgus monkey plasma by LC-MS/MS", "format": "in vivo, cynomolgus monkeys (Macaca fascicularis)", "details": "for concentration at 30 min / concentration at 60 min / concentration at 90 min / concentration at 120 min / concentration at 150 min / concentration at 180 min / concentration at 1 min: cynomolgus monkey, intravenous", "description": "During each scan, whole blood PK samples were collected (in K2 EDTA tubes) at pre-dose (−5 min), and post-dose at 1 (end of bolus), 30, 60 (just prior to [^18F]AV-133 radiopharmaceutical administration), 90, 120, 150, 180 (end of scan) minutes after test article administration. PK samples were approximately 1 mL each (8 mL total, including pre-dose sample). PK sample collection times were relative to start of NBI-750142 bolus administration.\nNBI-750142 concentration in cynomolgus monkey plasma samples was analyzed using a qualified LC-MS/MS bioanalytical method. […] Plasma samples were processed using protein precipitation extraction with 0.1% formic acid in acetonitrile and the addition of stable deuterium isotope labeled internal standard NBI-750142-D6. Processed samples were chromatographically separated on a C18 column and coupled to a Sciex API 4000 triple quadrupole mass spectrometer.\nThe method used in this study was qualified for a range of 0.250 to 250 ng/mL based on the analysis of 100 μL of plasma by LC-MS-MS. Quantitation was performed using a weighted 1/×2 linear least squares regression analysis generated from calibration standards. The protein precipitation extraction procedure began with the addition of internal standard solution (20.0 μL of approximately 100 ng/mL deuterated NBI-750142-D6). After adding 400 μL of acetonitrile/formic acid (1000:1.00), the tubes were sealed, vortexed and centrifuged. Subsequently, 100 μL of the supernatant was transferred to a new plate containing 400 μL of water/formic acid (1000:1.00). […] A triple quadrupole mass spectrometer (Sciex API 4000) equipped with TurboIonSpray source was used in the positive ion mode. Quantitation was based on multiple reaction monitoring (MRM) of m/z transitions of NBI-750142 and NBI-750142-D6.", "key": {"[1]": {"details": "0.026 mg/kg, GC786, 0.026 mg/kg i.v."}, "[2]": {"details": "0.084 mg/kg, EC865, 0.084 mg/kg i.v."}, "[3]": {"details": "0.26 mg/kg, GC786, 0.26 mg/kg i.v."}, "[4]": {"details": "0.26 mg/kg, LC206, 0.26 mg/kg i.v."}, "[5]": {"details": "0.52 mg/kg, EC865, 0.52 mg/kg i.v."}, "[6]": {"details": "0.78 mg/kg, GC786, 0.78 mg/kg i.v."}}}
{"smiles": "COc1cc2c(cc1OC)[C@H]1CN(C)[C@H](CC(C)(C)C)CN1CC2", "note": "[NBI-750142]", "values": [{"measurement": "Mean ng/mL NBI-750142 Concentration during PET Scan (60-180 min)", "setting": "EC865, 0.084 mg/kg i.v.", "value": 6.4, "unit": "ng/mL"}, {"measurement": "Mean ng/mL NBI-750142 Concentration during PET Scan (60-180 min)", "setting": "EC865, 0.52 mg/kg i.v.", "value": 37.6, "unit": "ng/mL"}, {"measurement": "Mean ng/mL NBI-750142 Concentration during PET Scan (60-180 min)", "setting": "GC786, 0.026 mg/kg i.v.", "value": 2.9, "unit": "ng/mL"}, {"measurement": "ng/mL NBI-750142 at 1 min", "setting": "GC786, 0.026 mg/kg i.v., BLQ = <0.250 ng/mL", "value": "BLQ"}, {"measurement": "Mean ng/mL NBI-750142 Concentration during PET Scan (60-180 min)", "setting": "GC786, 0.26 mg/kg i.v.", "value": 12.3, "unit": "ng/mL"}, {"measurement": "Mean ng/mL NBI-750142 Concentration during PET Scan (60-180 min)", "setting": "GC786, 0.78 mg/kg i.v.", "value": 74.5, "unit": "ng/mL"}, {"measurement": "Mean ng/mL NBI-750142 Concentration during PET Scan (60-180 min)", "setting": "LC206, 0.26 mg/kg i.v.", "value": 35.7, "unit": "ng/mL"}, {"measurement": "concentration at 30 min", "setting": "[1]", "value": 2.31, "unit": "ng/mL"}, {"measurement": "concentration at 60 min", "setting": "[1]", "value": 2.24, "unit": "ng/mL"}, {"measurement": "concentration at 90 min", "setting": "[1]", "value": 2.56, "unit": "ng/mL"}, {"measurement": "concentration at 120 min", "setting": "[1]", "value": 2.69, "unit": "ng/mL"}, {"measurement": "concentration at 150 min", "setting": "[1]", "value": 3.69, "unit": "ng/mL"}, {"measurement": "concentration at 180 min", "setting": "[1]", "value": 3.1, "unit": "ng/mL"}, {"measurement": "concentration at 1 min", "setting": "[2]", "value": 108, "unit": "ng/mL"}, {"measurement": "concentration at 30 min", "setting": "[2]", "value": 7.42, "unit": "ng/mL"}, {"measurement": "concentration at 60 min", "setting": "[2]", "value": 6.04, "unit": "ng/mL"}, {"measurement": "concentration at 90 min", "setting": "[2]", "value": 5.91, "unit": "ng/mL"}, {"measurement": "concentration at 120 min", "setting": "[2]", "value": 5.85, "unit": "ng/mL"}, {"measurement": "concentration at 150 min", "setting": "[2]", "value": 7.34, "unit": "ng/mL"}, {"measurement": "concentration at 180 min", "setting": "[2]", "value": 7.07, "unit": "ng/mL"}, {"measurement": "concentration at 1 min", "setting": "[3]", "value": 102, "unit": "ng/mL"}, {"measurement": "concentration at 30 min", "setting": "[3]", "value": 18.4, "unit": "ng/mL"}, {"measurement": "concentration at 60 min", "setting": "[3]", "value": 10.6, "unit": "ng/mL"}, {"measurement": "concentration at 90 min", "setting": "[3]", "value": 6.85, "unit": "ng/mL"}, {"measurement": "concentration at 120 min", "setting": "[3]", "value": 13.4, "unit": "ng/mL"}, {"measurement": "concentration at 150 min", "setting": "[3]", "value": 15.2, "unit": "ng/mL"}, {"measurement": "concentration at 180 min", "setting": "[3]", "value": 15.3, "unit": "ng/mL"}, {"measurement": "concentration at 1 min", "setting": "[4]", "value": 119, "unit": "ng/mL"}, {"measurement": "concentration at 30 min", "setting": "[4]", "value": 31, "unit": "ng/mL"}, {"measurement": "concentration at 60 min", "setting": "[4]", "value": 26, "unit": "ng/mL"}, {"measurement": "concentration at 90 min", "setting": "[4]", "value": 38.3, "unit": "ng/mL"}, {"measurement": "concentration at 120 min", "setting": "[4]", "value": 41.1, "unit": "ng/mL"}, {"measurement": "concentration at 150 min", "setting": "[4]", "value": 37.7, "unit": "ng/mL"}, {"measurement": "concentration at 180 min", "setting": "[4]", "value": 35.2, "unit": "ng/mL"}, {"measurement": "concentration at 1 min", "setting": "[5]", "value": 295, "unit": "ng/mL"}, {"measurement": "concentration at 30 min", "setting": "[5]", "value": 45.1, "unit": "ng/mL"}, {"measurement": "concentration at 60 min", "setting": "[5]", "value": 36.9, "unit": "ng/mL"}, {"measurement": "concentration at 90 min", "setting": "[5]", "value": 35.3, "unit": "ng/mL"}, {"measurement": "concentration at 120 min", "setting": "[5]", "value": 36.2, "unit": "ng/mL"}, {"measurement": "concentration at 150 min", "setting": "[5]", "value": 38.4, "unit": "ng/mL"}, {"measurement": "concentration at 180 min", "setting": "[5]", "value": 41.3, "unit": "ng/mL"}, {"measurement": "concentration at 1 min", "setting": "[6]", "value": 186, "unit": "ng/mL"}, {"measurement": "concentration at 30 min", "setting": "[6]", "value": 63, "unit": "ng/mL"}, {"measurement": "concentration at 60 min", "setting": "[6]", "value": 65.2, "unit": "ng/mL"}, {"measurement": "concentration at 90 min", "setting": "[6]", "value": 69.9, "unit": "ng/mL"}, {"measurement": "concentration at 120 min", "setting": "[6]", "value": 75.1, "unit": "ng/mL"}, {"measurement": "concentration at 150 min", "setting": "[6]", "value": 76, "unit": "ng/mL"}, {"measurement": "concentration at 180 min", "setting": "[6]", "value": 86.5, "unit": "ng/mL"}]}
